Measured values from patent US9045491B2, “Thienyl [3,2-D] pyrimidin-4-one compounds, preparation method, pharmaceutical compositions and use thereof” (SHANGHAI INSTITUTE OF MATERIA MEDICA, CHINESE ACADEMY OF …, priority 2011, dated 2015).
Values joined by “and” are separate entries in the source; they are usually repeats but may differ in a detail not shown here. Equal entries are not always repeated.

Tests used:
[1] = Pharmacokinetics of DC291407 and metabolites in rats (LC-MS/MS); format: in vivo, Sprague-Dawley (SD) rats
Protocol: The concentration of metabolite M1 (4071001), metabolite M2 (407002) or metabolite M3 (407003) in plasma was determined by LC-MS/MS method after DC291407 was administrated to the rats through gavage and intravenous injection.
The LC/MS/MS used is triple quadruple LC/MS 6460 from Agilent.
Six healthy male Sprague-Dawley (SD) rats with the weight of 180-220 g were randomly divided into 2 groups. The rats in each group were administrated with the tested compound by gavage or intravenous injection, respectively.
The compound was dissolved in 6.7% DMSO/6.7% Tween/86.6% normal saline.
The rats fasted for 12 h and can drink water ad libitum. 2 h after dosing, the rats were provided with food all together. The time point for collecting blood samples and the sample processing are listed as follows.
Intragastric administration: 0.25, 0.5, 1.0, 2.0, 3.0, 4.0, 6.0, 8.0 and 24 h after administration;
Intravenous administration: 5 min, 0.25, 0.5, 1.0, 2.0, 4.0, 6.0, 8.0 and 24 h after administration. At above time point, 0.3 ml venous blood was taken from retrobulbar venous plexus of the rat and loaded into heparinization tube. After centrifuged at 11000 rpm for 5 min, the plasma was separated and frozen at −20° C. in a refrigerator.

[2] = Safety evaluation: single dose 100 mg/kg by gavage, one week observation; format: in vivo, ICR mouse
Protocol: After grouping, each compound was administrated once through gavage according to the dose of 100 mg/kg at the same time.

[3] = intravenous injection 10 mg/kg DC291407, individual animals, 10 mg/kg
[4] = intravenous injection 10 mg/kg DC291407, time 0.083 h, average of 3 animals
[5] = intravenous injection 10 mg/kg DC291407, time 0.083 h, individual animals, 10 mg/kg
[6] = intravenous injection 10 mg/kg DC291407, time 0.25 h, average of 3 animals
[7] = intravenous injection 10 mg/kg DC291407, time 0.25 h, individual animals, 10 mg/kg
[8] = intravenous injection 10 mg/kg DC291407, time 0.50 h, average of 3 animals
[9] = intravenous injection 10 mg/kg DC291407, time 0.50 h, individual animals, 10 mg/kg
[10] = intravenous injection 10 mg/kg DC291407, time 1.0 h, average of 3 animals
[11] = intravenous injection 10 mg/kg DC291407, time 1.0 h, individual animals, 10 mg/kg
[12] = intravenous injection 10 mg/kg DC291407, time 2.0 h, average of 3 animals
[13] = intravenous injection 10 mg/kg DC291407, time 2.0 h, individual animals, 10 mg/kg
[14] = intravenous injection 10 mg/kg DC291407, time 4.0 h, individual animals, BLQ = below lower quantification
[15] = intravenous injection 10 mg/kg DC291407, time 6.0 h, individual animals, BLQ = below lower quantification
[16] = intravenous injection 10 mg/kg DC291407, time 8.0 h, individual animals, BLQ = below lower quantification
[17] = intravenous injection 10 mg/kg DC291407, time 24 h, individual animals, BLQ = below lower quantification
[18] = normal ICR mouse, 100 mg/kg single dose, 7th day
[19] = normal ICR mouse, 100 mg/kg single dose, 1 d after administration
[20] = normal ICR mouse, 100 mg/kg single dose, 2 d after administration
[21] = normal ICR mouse, 100 mg/kg single dose, 3 d after administration
[22] = normal ICR mouse, 100 mg/kg single dose, 4 d after administration
[23] = normal ICR mouse, 100 mg/kg single dose, 5 d after administration
[24] = normal ICR mouse, 100 mg/kg single dose, 6 d after administration
[25] = normal ICR mouse, 100 mg/kg single dose, 7 d after administration
[26] = normal ICR mouse, 100 mg/kg single dose, before administration

Structure (SMILES): COC(=O)c1cc2nc(N3CCCC(N)C3)n(Cc3ccccc3C#N)c(=O)c2s1 (stereo not drawn) [DC291407]
- t1/2 of metabolite M1 [1, 3]: 19.2 h and 9.18 h and 8.40 h
- t1/2 of prototype drug [1, 3]: 0.51 h and 0.53 h and 1.01 h
- Plasma concentration of metabolite M1 [1, 4]: 45028 ng/mL
- Plasma concentration of metabolite M2 [1, 4]: 117 ng/mL
- Plasma concentration of prototype compound [1, 4]: 59.2 ng/mL
- Plasma concentration of metabolite M1 [1, 5]: 39818 ng/mL and 41730 ng/mL and 53535 ng/mL
- Plasma concentration of metabolite M2 [1, 5]: 126 ng/mL and 209 ng/mL and 15.0 ng/mL
- Plasma concentration of prototype compound [1, 5]: 63.4 ng/mL and 60.7 ng/mL and 53.4 ng/mL
- Plasma concentration of metabolite M1 [1, 6]: 29232 ng/mL
- Plasma concentration of metabolite M2 [1, 6]: 339 ng/mL
- Plasma concentration of prototype compound [1, 6]: 34.8 ng/mL
- Plasma concentration of metabolite M1 [1, 7]: 28858 ng/mL and 29247 ng/mL and 29592 ng/mL
- Plasma concentration of metabolite M2 [1, 7]: 866 ng/mL and 132 ng/mL and 20.3 ng/mL
- Plasma concentration of prototype compound [1, 7]: 49.7 ng/mL and 34.4 ng/mL and 20.3 ng/mL
- Plasma concentration of metabolite M1 [1, 8]: 9487 ng/mL
- Plasma concentration of metabolite M2 [1, 8]: 102 ng/mL
- Plasma concentration of prototype compound [1, 8]: 23.0 ng/mL
- Plasma concentration of metabolite M1 [1, 9]: 11784 ng/mL and 7251 ng/mL and 9426 ng/mL
- Plasma concentration of metabolite M2 [1, 9]: 144 ng/mL and 153 ng/mL and 9.39 ng/mL
- Plasma concentration of prototype compound [1, 9]: 27.4 ng/mL and 31.7 ng/mL and 9.72 ng/mL
- Plasma concentration of metabolite M1 [1, 10]: 4717 ng/mL
- Plasma concentration of metabolite M2 [1, 10]: 23.4 ng/mL
- Plasma concentration of prototype compound [1, 10]: 9.9 ng/mL
- Plasma concentration of metabolite M1 [1, 11]: 5628 ng/mL and 4634 ng/mL and 3891 ng/mL
- Plasma concentration of metabolite M2 [1, 11]: 36.0 ng/mL and 30.9 ng/mL and 3.26 ng/mL
- Plasma concentration of prototype compound [1, 11]: 11.3 ng/mL and 11.9 ng/mL and 6.61 ng/mL
- Plasma concentration of metabolite M1 [1, 12]: 310 ng/mL
- Plasma concentration of prototype compound [1, 12]: 4.05 ng/mL
- Plasma concentration of metabolite M1 [1, 13]: 401 ng/mL and 214 ng/mL and 314.7 ng/mL
- Plasma concentration of prototype compound [1, 13]: 4.75 ng/mL and 3.94 ng/mL and 3.44 ng/mL
- Plasma concentration of metabolite M2 ([1]; intravenous injection 10 mg/kg DC291407, time 2.0 h, individual animals, BLQ = below lower quantification, 10 mg/kg): BLQ (2×) and 7.18 ng/mL
- Plasma concentration of metabolite M1 ([1]; intravenous injection 10 mg/kg DC291407, time 4.0 h, average of 3 animals): 69.7 ng/mL
- Plasma concentration of metabolite M1 ([1]; intravenous injection 10 mg/kg DC291407, time 4.0 h, individual animals, 10 mg/kg): 55.4 ng/mL and 68.1 ng/mL and 85.5 ng/mL
- Plasma concentration of metabolite M2 [1, 14]: BLQ
- Plasma concentration of prototype compound [1, 14]: BLQ
- Plasma concentration of metabolite M1 ([1]; intravenous injection 10 mg/kg DC291407, time 6.0 h, average of 3 animals): 40.5 ng/mL
- Plasma concentration of metabolite M1 ([1]; intravenous injection 10 mg/kg DC291407, time 6.0 h, individual animals, 10 mg/kg): 30.9 ng/mL and 41.4 ng/mL and 49.3 ng/mL
- Plasma concentration of metabolite M2 [1, 15]: BLQ
- Plasma concentration of prototype compound [1, 15]: BLQ
- Plasma concentration of metabolite M1 ([1]; intravenous injection 10 mg/kg DC291407, time 8.0 h, average of 3 animals): 37.3 ng/mL
- Plasma concentration of metabolite M1 ([1]; intravenous injection 10 mg/kg DC291407, time 8.0 h, individual animals, 10 mg/kg): 24.8 ng/mL and 48.5 ng/mL and 38.5 ng/mL
- Plasma concentration of metabolite M2 [1, 16]: BLQ
- Plasma concentration of prototype compound [1, 16]: BLQ
- Plasma concentration of metabolite M1 ([1]; intravenous injection 10 mg/kg DC291407, time 24 h, average of 3 animals): 13.1 ng/mL
- Plasma concentration of metabolite M1 ([1]; intravenous injection 10 mg/kg DC291407, time 24 h, individual animals, 10 mg/kg): 15.2 ng/mL and 13.3 ng/mL and 10.8 ng/mL
- Plasma concentration of metabolite M2 [1, 17]: BLQ
- Plasma concentration of prototype compound [1, 17]: BLQ
- effect on body weight (conclusion) ([2]; ICR mouse, 100 mg/kg single dose): possibly had no effect on body weight
- acute toxicity ([2]; ICR mouse, 100 mg/kg single dose by gavage, one week): did not reflect obvious acute toxicity
- body weight versus normal control group (statistics) ([2]; ICR mouse, 100 mg/kg single dose, from second day to 7 days, 100 mg/kg): significant statistical difference
- kidney index versus normal control group (in words) ([2]; ICR mouse, 100 mg/kg, 7th day after administration): did not significantly differ
- spleen index versus normal control group (in words) ([2]; ICR mouse, 100 mg/kg, 7th day after administration, 100 mg/kg): significantly increased
- spleen index versus normal control group (in words) ([2]; ICR mouse, 100 mg/kg, 7th day after administration, listed as DC29147, 100 mg/kg): statistical difference
- Kidney index [2, 18]: 1.5 ± 0.2%
- Liver index [2, 18]: 5.3 ± 0.4%
- Spleen index [2, 18]: 0.4 ± 0.0 %
- body weight [2, 19]: 30.0 ± 1.6 g
- food consumption [2, 19]: 18.4 g · day^−1 · cage^−1
- body weight [2, 20]: 30.0 ± 1.7 g
- food consumption [2, 20]: 18.5 g · day^−1 · cage^−1
- body weight [2, 21]: 29.7 ± 1.9 g
- food consumption [2, 21]: 19.0 g · day^−1 · cage^−1
- body weight [2, 22]: 30.0 ± 1.5 g
- food consumption [2, 22]: 19.4 g · day^−1 · cage^−1
- body weight [2, 23]: 30.5 ± 1.5 g
- food consumption [2, 23]: 22.3 g · day^−1 · cage^−1
- body weight [2, 24]: 30.4 ± 1.8 g
- food consumption [2, 24]: 22.6 g · day^−1 · cage^−1
- body weight [2, 25]: 30.6 ± 1.9 g
- food consumption [2, 25]: 23.5 g · day^−1 · cage^−1
- body weight [2, 26]: 29.7 ± 1.8 g
- food consumption [2, 26]: 21.4 g · day^−1 · cage^−1
